Data on one compound can be found in paper PMC5428058, “Local delivery of novel MRTF/SRF inhibitors prevents scar tissue formation in a preclinical model of fibrosis” (Scientific Reports, 2017).

Data set [1] has as its system ACTA2 and CTGF in human conjunctival fibroblasts. The data set can be described thus: MRTF/SRF target gene expression by qRT-PCR (human). The format is cell-based. Particulars: 24 hours, 10% FCS. The procedure: Human or rabbit conjunctival fibroblasts were plated at 1 × 10^5 cells/well in 6-well plates (Falcon, Fisher Scientific). The next day, the fibroblasts were treated with 5, 10, 25, or 50 μM of CCG-222740 or CCG-203971 or 0.1% DMSO control in DMEM +10% FCS for 24 hours. The fibroblasts were then lysed for RNA extraction using the Sigma RNA isolation kit (Sigma-Aldrich), according to the manufacturer’s instructions. Reverse transcription was carried out using the Transcriptor First Strand cDNA Synthesis Kit (Roche), according to the manufacturer’s instructions. qRT-PCR reactions were performed using SYBR green reagents (Life Technologies) on an HT7900 Fast Real-Time PCR system (Applied Biosystems). The human exonic primer sequences were: ACTA2, 5′-[…]-3′, 3′-[…]-5′; CTGF, 5′-CAGAGTGGAGCGCCTGTT-3′, 3′-CTGCAGGAGGCGTTGTCA-5′; GAPDH, 5′-[…]-3′, 3′-[…]-5′. The rabbit exonic primer sequences were ACTA2, 5′- […]-3′, 3′- […]-5′; GAPDH, 5′-CGAGACACGATGGTGAAGG-3′, 3′-[…]-5′. All mRNA values were normalised relative to that of GAPDH. Each experiment was carried out in triplicates for each treatment group and the experiment was repeated three times.
Background: Quantitative PCR measures a nucleic acid by following its amplification.

The subject of data set [2] is human conjunctival fibroblasts. As to the kind of experiment: cell viability assay (CellTiter 96 Aqueous one solution). Type of data set: cell-based. The following applies: for cell viability: 24 hours. Here is the method: Human conjunctival fibroblasts were plated at 6.25 × 10^3 cells/well in 96-well plates (Falcon, Fisher Scientific), and treated with 1, 3, 10, 30 or 100 μM of CCG-222740 or CCG-203971 or 0.1% DMSO control for 24 hours. 20 μl of CellTiter 96 Aqueous one solution (Promega) were then added to each well containing the samples in 100 μl of culture medium. The plate was incubated for 1 hour at 37 °C and the absorbance was measured at 490 nm on a SpectraMax Plus 384 spectrophotometer (Molecular Devices, California, USA). Each experiment was carried out in triplicates for each condition and the experiment was repeated three times.

The cell viability is the share of living cells, or the viability signal relative to a control. A lower cell viability goes with a greater loss of cells. In the case of `O=C(Nc1ccc(Cl)cc1)C1CN(C(=O)c2cccc(-c3ccco3)c2)CC(F)(F)C1` (centres unmarked) [CCG-222740], the “expression of MRTF/SRF target genes ACTA2 and CTGF, comparison” value in data set [1] was “more potent inhibitor of expression”. Also, the cell viability was 100% in data set [2] (10 μM), 88% in data set [2] (30 μM) and 85% in data set [2] (100 μM). Moreover, the “cytotoxicity, comparison” value in data set [2] (human conjunctival fibroblasts) is listed as “less cytotoxic than CCG-203971”.
